Assay results: ChEMBL document CHEMBL1136450, “Synthesis and biological activity of 2-carbomethoxy-3-catechol-8-azabicyclo[3.2.1]octanes” (Bioorg Med Chem Lett, 2003)
pIC50, pKi: −log10 of the molar value.

Assays:
Type in all cases: cell-based, HEK293
[1] = biological target: T1, Sodium-dependent dopamine transporter (Homo sapiens, UniProt Q01959)
[2] = biological target: T2, Sodium-dependent noradrenaline transporter (Homo sapiens, UniProt P23975)
[3] = biological target: T3, Sodium-dependent serotonin transporter (Homo sapiens, UniProt P31645)
T3 sequence (P31645 whole entry): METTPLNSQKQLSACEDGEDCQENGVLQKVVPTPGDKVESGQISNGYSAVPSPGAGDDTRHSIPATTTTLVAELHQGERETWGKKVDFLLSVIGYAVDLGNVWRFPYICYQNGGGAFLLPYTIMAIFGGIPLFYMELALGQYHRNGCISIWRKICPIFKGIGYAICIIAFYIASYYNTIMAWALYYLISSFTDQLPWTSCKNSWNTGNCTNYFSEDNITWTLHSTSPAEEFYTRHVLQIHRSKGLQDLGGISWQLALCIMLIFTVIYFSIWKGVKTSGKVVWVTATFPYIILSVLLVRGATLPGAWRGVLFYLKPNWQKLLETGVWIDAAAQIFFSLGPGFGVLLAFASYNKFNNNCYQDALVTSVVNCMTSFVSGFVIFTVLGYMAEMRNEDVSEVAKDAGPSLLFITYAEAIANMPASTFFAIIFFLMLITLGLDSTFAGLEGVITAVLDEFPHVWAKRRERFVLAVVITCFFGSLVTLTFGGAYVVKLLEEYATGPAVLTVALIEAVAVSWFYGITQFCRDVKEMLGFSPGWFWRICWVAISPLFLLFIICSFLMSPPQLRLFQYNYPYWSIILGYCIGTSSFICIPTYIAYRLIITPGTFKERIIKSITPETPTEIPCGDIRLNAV

[4] = biological target: T3, Sodium-dependent serotonin transporter; test: Inhibition of [3H]5-HT uptake in HEK cells expressing human SERT
[5] = biological target: T2, Sodium-dependent noradrenaline transporter; test: Inhibition of [3H]norepinephrine uptake in HEK cells expressing human NET
[6] = biological target: T1, Sodium-dependent dopamine transporter; test: Inhibition of [3H]dopamine uptake in HEK cells expressing human DAT

T2 sequence (P23975 whole entry): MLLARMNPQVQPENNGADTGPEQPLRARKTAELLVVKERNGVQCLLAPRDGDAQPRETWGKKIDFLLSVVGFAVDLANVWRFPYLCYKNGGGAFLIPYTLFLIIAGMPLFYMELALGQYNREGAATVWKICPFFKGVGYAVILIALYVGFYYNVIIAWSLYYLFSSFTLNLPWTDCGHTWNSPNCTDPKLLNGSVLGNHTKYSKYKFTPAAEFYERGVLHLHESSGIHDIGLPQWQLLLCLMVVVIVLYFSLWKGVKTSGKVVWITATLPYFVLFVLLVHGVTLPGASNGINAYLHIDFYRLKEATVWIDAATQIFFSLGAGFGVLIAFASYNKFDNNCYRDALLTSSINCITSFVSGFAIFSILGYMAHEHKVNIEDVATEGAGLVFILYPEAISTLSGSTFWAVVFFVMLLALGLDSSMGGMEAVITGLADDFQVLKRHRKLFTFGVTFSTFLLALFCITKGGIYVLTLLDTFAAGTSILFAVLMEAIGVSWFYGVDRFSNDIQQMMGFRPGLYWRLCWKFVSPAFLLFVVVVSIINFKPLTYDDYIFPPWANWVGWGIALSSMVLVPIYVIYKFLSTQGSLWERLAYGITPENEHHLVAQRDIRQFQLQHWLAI
T1 sequence (Q01959 whole entry): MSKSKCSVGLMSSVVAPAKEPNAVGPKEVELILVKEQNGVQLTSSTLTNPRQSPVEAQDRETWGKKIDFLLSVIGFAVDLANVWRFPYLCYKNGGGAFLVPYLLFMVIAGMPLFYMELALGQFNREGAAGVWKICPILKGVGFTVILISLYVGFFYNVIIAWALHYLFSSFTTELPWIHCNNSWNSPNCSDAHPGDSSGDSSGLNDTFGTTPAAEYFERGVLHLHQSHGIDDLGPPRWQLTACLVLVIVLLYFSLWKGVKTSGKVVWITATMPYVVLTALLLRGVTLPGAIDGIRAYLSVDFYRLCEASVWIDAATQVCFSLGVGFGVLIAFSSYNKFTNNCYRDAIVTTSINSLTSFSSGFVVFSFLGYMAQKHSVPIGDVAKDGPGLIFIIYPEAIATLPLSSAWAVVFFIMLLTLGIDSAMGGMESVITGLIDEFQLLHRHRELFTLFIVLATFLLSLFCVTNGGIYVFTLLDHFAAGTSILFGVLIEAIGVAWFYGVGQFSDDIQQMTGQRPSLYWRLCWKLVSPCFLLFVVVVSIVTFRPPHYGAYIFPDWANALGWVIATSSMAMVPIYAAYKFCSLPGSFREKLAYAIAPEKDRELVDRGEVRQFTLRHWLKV

Structure (SMILES)	pKi [1]	pKi [2]	pKi [3]	pIC50 [4]	pIC50 [5]	pIC50 [6]	pKi ([1]; hek293)	pKi ([2]; hek293)
COC(=O)C1=C(c2ccc(O)c(O)c2)CC2CCC1N2C (stereo not given)	< 5.00	< 5.00	< 5.00					
COC(=O)C1=C(c2ccc(C(C)=O)c(C(C)=O)c2)CC2CCC1N2C (stereo not given)	< 5.00	< 5.00	< 5.00					
COC(=O)C1C(c2ccc(OC)c(OC)c2)CC2CCC1N2C (stereo not given)	5.81	5.35	7.34	7.64	5.84	5.80		
COC(=O)C1C(c2ccc(O)c(O)c2)CC2CCC1N2C (stereo in doubt; 7)	5.86	5.53	6.57	6.51	6.91	6.29		
COC(=O)C1C(c2ccc(O)c(O)c2)CC2CCC1N2C (stereo in doubt; 8)	6.01	5.51	5.00		6.76	6.39		
COC(=O)C1C(c2ccc(C(C)=O)c(C(C)=O)c2)CC2CCC1N2C (stereo in doubt; 10)			6.77	6.48			< 5.00	< 5.00
COC(=O)C1C(c2ccc(C(C)=O)c(C(C)=O)c2)CC2CCC1N2C (stereo in doubt; 11)	< 5.00	< 5.00	6.15					
